Assay: Stability of the active substance throughout the process by high performance liquid chromatography
Type: physicochemical
Conditions: HPLC; purity/titre and related substance profile compared with the starting product, both tests

stability throughout the process: good stability
SMILES: CO[C@H]1C[C@@H]2CC[C@@H](C)[C@@](O)(O2)C(=O)C(=O)N2CCCC[C@H]2C(=O)O[C@H]([C@H](C)C[C@@H]2CC[C@@H](O)[C@H](OC)C2)CC(=O)[C@H](C)/C=C(\C)[C@@H](O)[C@@H](OC)C(=O)[C@H](C)C[C@H](C)/C=C/C=C/C=C/1C [sirolimus]

— patent US8765184B2 (Stanipharm, priority 2009, dated 2014)
